Results published in the NIST ThermoML archive (doi:10.1016/j.jct.2009.07.002).

Test: isobaric coefficient of expansion
Details: Liquid, DSC with Pressure Shift

CCCCCCCCCO [nonan-1-ol]
isobaric coefficient of expansion
Details | 278.15 K | 288.15 K | 298.15 K | 308.15 K | 318.15 K | 328.15 K | 338.15 K | 348.15 K
5000 kPa | 0.000819 1/K | 0.000805 1/K | 0.000816 1/K | 0.000829 1/K | 0.000846 1/K | 0.000863 1/K | 0.000886 1/K | 0.000912 1/K
10000 kPa | 0.000795 1/K | 0.000791 1/K | 0.000798 1/K | 0.00081 1/K | 0.000826 1/K | 0.00084 1/K | 0.000858 1/K | 0.000879 1/K
15000 kPa | 0.000786 1/K | 0.000772 1/K | 0.000782 1/K | 0.000792 1/K | 0.000801 1/K | 0.000815 1/K | 0.000831 1/K | 0.000853 1/K
20000 kPa | 0.000759 1/K | 0.000759 1/K | 0.000762 1/K | 0.000773 1/K | 0.000785 1/K | 0.000792 1/K | 0.000807 1/K | 0.000827 1/K
25000 kPa | 0.000741 1/K | 0.000743 1/K | 0.000745 1/K | 0.000753 1/K | 0.000764 1/K | 0.000775 1/K | 0.000789 1/K | 0.000806 1/K
30000 kPa | 0.000733 1/K | 0.000728 1/K | 0.000732 1/K | 0.000736 1/K | 0.000748 1/K | 0.000759 1/K | 0.000773 1/K | 0.000787 1/K
35000 kPa | 0.000719 1/K | 0.000716 1/K | 0.00072 1/K | 0.000723 1/K | 0.000732 1/K | 0.000743 1/K | 0.000754 1/K | 0.000768 1/K
40000 kPa | 0.000704 1/K | 0.000705 1/K | 0.000705 1/K | 0.00071 1/K | 0.000715 1/K | 0.000728 1/K | 0.000736 1/K | 0.000749 1/K
45000 kPa | 0.000693 1/K | 0.000698 1/K | 0.000693 1/K | 0.000695 1/K | 0.000702 1/K | 0.000715 1/K | 0.000722 1/K | 0.000734 1/K
50000 kPa | 0.000685 1/K | 0.000691 1/K | 0.000682 1/K | 0.000684 1/K | 0.00069 1/K | 0.0007 1/K | 0.000708 1/K | 0.000719 1/K
55000 kPa | 0.000672 1/K | 0.000677 1/K | 0.000672 1/K | 0.000673 1/K | 0.000678 1/K | 0.000687 1/K | 0.000695 1/K | 0.000705 1/K

CCCCCCCCO [octan-1-ol]
isobaric coefficient of expansion
Details | 278.15 K | 288.15 K | 298.15 K | 308.15 K | 318.15 K | 328.15 K | 338.15 K | 348.15 K
5000 kPa | 0.000816 1/K | 0.000817 1/K | 0.000818 1/K | 0.00084 1/K | 0.000859 1/K | 0.000877 1/K | 0.0009 1/K | 0.000928 1/K
10000 kPa | 0.000798 1/K | 0.000793 1/K | 0.000799 1/K | 0.000821 1/K | 0.000837 1/K | 0.00085 1/K | 0.000873 1/K | 0.000896 1/K
15000 kPa | 0.00078 1/K | 0.000774 1/K | 0.000784 1/K | 0.000801 1/K | 0.000815 1/K | 0.000827 1/K | 0.000845 1/K | 0.000865 1/K
20000 kPa | 0.000755 1/K | 0.000761 1/K | 0.000764 1/K | 0.000783 1/K | 0.000793 1/K | 0.000805 1/K | 0.000822 1/K | 0.000843 1/K
25000 kPa | 0.000742 1/K | 0.000746 1/K | 0.000749 1/K | 0.000762 1/K | 0.000775 1/K | 0.000787 1/K | 0.000801 1/K | 0.000821 1/K
30000 kPa | 0.00073 1/K | 0.000732 1/K | 0.000736 1/K | 0.000746 1/K | 0.000758 1/K | 0.000767 1/K | 0.000783 1/K | 0.0008 1/K
35000 kPa | 0.000717 1/K | 0.000715 1/K | 0.000724 1/K | 0.00073 1/K | 0.000742 1/K | 0.000751 1/K | 0.000766 1/K | 0.00078 1/K
40000 kPa | 0.000704 1/K | 0.000707 1/K | 0.000714 1/K | 0.000716 1/K | 0.000727 1/K | 0.000735 1/K | 0.000746 1/K | 0.000762 1/K
45000 kPa | 0.00069 1/K | 0.000692 1/K | 0.000698 1/K | 0.000702 1/K | 0.000711 1/K | 0.000719 1/K | 0.000731 1/K | 0.000745 1/K
50000 kPa | 0.000683 1/K | 0.000681 1/K | 0.000687 1/K | 0.000692 1/K | 0.000698 1/K | 0.000705 1/K | 0.000717 1/K | 0.000731 1/K
55000 kPa | 0.000673 1/K | 0.000671 1/K | 0.000676 1/K | 0.000678 1/K | 0.000688 1/K | 0.000692 1/K | 0.000705 1/K | 0.000717 1/K
